Several values for one entry are separate records, joined by “and”; a condition that tells them apart may be missing. Identical values can stand only once. Inconclusive results and toxic doses are left out. Rule as the data show it: active = T/C of 150% or more; inactive = T/C below 125%.
Tested on: L1210 leukemia ip in BDF1 mice, survival T/C
Assay: NCI In Vivo Anticancer Drug Screen. Data for tumor model L1210 Leukemia (intraperitoneal) in B6D2F1 (BDF1) mice
Conditions: endpoint: mean survival time, higher = longer survival
How it was run: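 Ratio derived from survival: compound-dosed mice over vehicle-dosed mice, all bearing a transplantable tumor.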

[1] = dose: 100.0 mg/kg/injection, schedule: Q04DX003 (ip), vehicle: Klucel (hydroxypropylcellulose) (HPC)
[2] = dose: 100.0 mg/kg/injection, schedule: Q04DX003 (ip), vehicle: other
[3] = dose: 200.0 mg/kg/injection, schedule: Q04DX003 (ip), vehicle: other
[4] = dose: 100.0 mg/kg/injection, schedule: Q04DX002 (ip), vehicle: saline

Measured: T/C

O/N=C\c1ccnc2ccccc12
inactive: dose: 100.0 mg/kg/injection, schedule: Q01DX009 (ip), vehicle: carboxymethylcellulose (CMC) 93 % of control and 98 % of control | dose: 100.0 mg/kg/injection, schedule: Q04DX002 (ip), vehicle: carboxymethylcellulose (CMC) 100 % of control (2×) and 104 % of control | dose: 100.0 mg/kg/injection, schedule: Q04DX003 (ip), vehicle: carboxymethylcellulose (CMC) 97 % of control | dose: 200.0 mg/kg/injection, schedule: Q01DX009 (ip), vehicle: carboxymethylcellulose (CMC) 105 % of control and 90 % of control | dose: 200.0 mg/kg/injection, schedule: Q04DX002 (ip), vehicle: carboxymethylcellulose (CMC) 95 % of control and 100 % of control (2×) | dose: 200.0 mg/kg/injection, schedule: Q04DX003 (ip), vehicle: carboxymethylcellulose (CMC) 104 % of control | dose: 400.0 mg/kg/injection, schedule: Q01DX009 (ip), vehicle: carboxymethylcellulose (CMC) 98 % of control | dose: 400.0 mg/kg/injection, schedule: Q04DX002 (ip), vehicle: carboxymethylcellulose (CMC) 100 % of control and 104 % of control and 90 % of control | dose: 400.0 mg/kg/injection, schedule: Q04DX003 (ip), vehicle: carboxymethylcellulose (CMC) 98 % of control

Clc1ccc(C[P+](c2ccccc2)(c2ccccc2)c2ccccc2)c(Cl)c1
inactive: dose: 4.5 mg/kg/injection, schedule: Q01DX009 (ip), vehicle: saline 109 % of control | dose: 6.25 mg/kg/injection, schedule: Q01DX009 (ip), vehicle: saline with Tween-80 100 % of control | dose: 9.0 mg/kg/injection, schedule: Q01DX009 (ip), vehicle: saline 106 % of control | dose: 9.38 mg/kg/injection, schedule: Q01DX001 (ip), vehicle: water 100 % of control | dose: 12.5 mg/kg/injection, schedule: Q01DX009 (ip), vehicle: saline with Tween-80 94 % of control

O=Ic1ccccc1
inactive: dose: 25.0 mg/kg/injection, schedule: Q01DX009 (ip), vehicle: Klucel (hydroxypropylcellulose) (HPC) 103 % of control | dose: 50.0 mg/kg/injection, schedule: Q01DX009 (ip), vehicle: Klucel (hydroxypropylcellulose) (HPC) 98 % of control | dose: 50.0 mg/kg/injection, schedule: Q04DX003 (ip), vehicle: Klucel (hydroxypropylcellulose) (HPC) 93 % of control | [1] 89 % of control

O=C1NC(=O)C([N+](=O)[O-])=C(O)C1=O
inactive: dose: 100.0 mg/kg/injection, schedule: Q04DX003 (ip), vehicle: saline 96 % of control | dose: 200.0 mg/kg/injection, schedule: Q04DX003 (ip), vehicle: saline 101 % of control

CN1C2CCC1CC(OC(c1ccccc1)c1ccccc1)C2 (stereo not given)
inactive: dose: 3.12 mg/kg/injection, schedule: Q01DX009 (ip), vehicle: saline 95 % of control | dose: 5.0 mg/kg/injection, schedule: Q01DX009 (ip), vehicle: saline 92 % of control | dose: 6.25 mg/kg/injection, schedule: Q01DX009 (ip), vehicle: saline 97 % of control | dose: 10.0 mg/kg/injection, schedule: Q01DX009 (ip), vehicle: saline 103 % of control | dose: 12.5 mg/kg/injection, schedule: Q01DX009 (ip), vehicle: saline 103 % of control | dose: 17.0 mg/kg/injection, schedule: Q01DX009 (ip), vehicle: saline 95 % of control | dose: 20.0 mg/kg/injection, schedule: Q01DX009 (ip), vehicle: saline 90 % of control | dose: 25.0 mg/kg/injection, schedule: Q01DX009 (ip), vehicle: saline 109 % of control | dose: 55.0 mg/kg/injection, schedule: Q01DX001 (ip), vehicle: saline 98 % of control

O=C(COc1cc(Cl)c(Cl)cc1Cl)OCCN(CCOC(=O)COc1cc(Cl)c(Cl)cc1Cl)C(=O)COc1ccc(Cl)cc1
inactive: dose: 100.0 mg/kg/injection, schedule: Q01DX009 (ip), vehicle: other 92 % of control | dose: 200.0 mg/kg/injection, schedule: Q01DX009 (ip), vehicle: other 92 % of control | dose: 400.0 mg/kg/injection, schedule: Q01DX009 (ip), vehicle: other 102 % of control

COc1cc2ccc(C(N)=O)cc2cc1OC
inactive: dose: 100.0 mg/kg/injection, schedule: Q01DX001 (ip), vehicle: other 98 % of control | dose: 100.0 mg/kg/injection, schedule: Q01DX009 (ip), vehicle: saline with Tween-80 92 % of control | [2] 96 % of control | dose: 200.0 mg/kg/injection, schedule: Q01DX001 (ip), vehicle: other 102 % of control | dose: 200.0 mg/kg/injection, schedule: Q01DX009 (ip), vehicle: saline with Tween-80 95 % of control | [3] 103 % of control | dose: 400.0 mg/kg/injection, schedule: Q01DX001 (ip), vehicle: other 100 % of control | dose: 400.0 mg/kg/injection, schedule: Q01DX009 (ip), vehicle: saline with Tween-80 98 % of control | dose: 400.0 mg/kg/injection, schedule: Q04DX003 (ip), vehicle: other 103 % of control

CC1=CC2(C)CCC(=O)C(Cc3c(CCCC4(C)OCCO4)noc3C)=C2CC1 (stereo not given)
inactive: [1] 95 % of control | dose: 200.0 mg/kg/injection, schedule: Q04DX003 (ip), vehicle: Klucel (hydroxypropylcellulose) (HPC) 95 % of control | dose: 400.0 mg/kg/injection, schedule: Q04DX003 (ip), vehicle: Klucel (hydroxypropylcellulose) (HPC) 91 % of control

CCOC(=O)C1(O)c2ccccc2NC(=S)N1CC(Br)CBr (stereo not given)
inactive: dose: 100.0 mg/kg/injection, schedule: Q01DX009 (ip), vehicle: saline 100 % of control | [4] 90 % of control | dose: 200.0 mg/kg/injection, schedule: Q01DX009 (ip), vehicle: saline 93 % of control | dose: 200.0 mg/kg/injection, schedule: Q04DX002 (ip), vehicle: saline 97 % of control | dose: 400.0 mg/kg/injection, schedule: Q01DX009 (ip), vehicle: saline 102 % of control | dose: 400.0 mg/kg/injection, schedule: Q04DX002 (ip), vehicle: saline 103 % of control

O=[N+]([O-])c1ccc(O)c(/C=N/N2CCN(/N=C/c3cc([N+](=O)[O-])ccc3O)CC2)c1
inactive: dose: 100.0 mg/kg/injection, schedule: Q01DX001 (ip), vehicle: saline 91 % of control | dose: 200.0 mg/kg/injection, schedule: Q01DX001 (ip), vehicle: saline 97 % of control | dose: 400.0 mg/kg/injection, schedule: Q01DX001 (ip), vehicle: saline 97 % of control

CCOC=Nc1c(/C=C(/O)C(=O)OCC)c[n+]([O-])nc1OC
inactive: dose: 25.0 mg/kg/injection, schedule: Q04DX002 (ip), vehicle: saline with Tween-80 92 % of control | dose: 25.0 mg/kg/injection, schedule: Q04DX002 (ip), vehicle: saline 92 % of control | dose: 50.0 mg/kg/injection, schedule: Q04DX002 (ip), vehicle: saline with Tween-80 96 % of control | dose: 50.0 mg/kg/injection, schedule: Q04DX002 (ip), vehicle: saline 96 % of control | dose: 100.0 mg/kg/injection, schedule: Q04DX002 (ip), vehicle: saline with Tween-80 89 % of control | [4] 96 % of control

Cc1ccc(N2C=Nc3ccc(C)cc3C2)cc1
inactive: dose: 100.0 mg/kg/injection, schedule: Q01DX009 (ip), vehicle: Klucel (hydroxypropylcellulose) (HPC) 92 % of control | [2] 107 % of control | dose: 200.0 mg/kg/injection, schedule: Q01DX009 (ip), vehicle: Klucel (hydroxypropylcellulose) (HPC) 104 % of control | [3] 90 % of control

CCOP(=S)(N1CCNCC1)N1CCNCC1
inactive: dose: 75.0 mg/kg/injection, schedule: Q01DX001 (ip), vehicle: saline 90 % of control | dose: 75.0 mg/kg/injection, schedule: Q01DX009 (ip), vehicle: Klucel (hydroxypropylcellulose) (HPC) 95 % of control | dose: 150.0 mg/kg/injection, schedule: Q01DX001 (ip), vehicle: saline 92 % of control | dose: 150.0 mg/kg/injection, schedule: Q01DX009 (ip), vehicle: Klucel (hydroxypropylcellulose) (HPC) 120 % of control | dose: 300.0 mg/kg/injection, schedule: Q01DX001 (ip), vehicle: saline 100 % of control

CCCCCCCCCCOc1ccccc1C(=O)NCCN1CCCC1
inactive: dose: 15.0 mg/kg/injection, schedule: Q01DX015 (ip), vehicle: saline 88 % of control | dose: 30.0 mg/kg/injection, schedule: Q01DX015 (ip), vehicle: saline 91 % of control | dose: 60.0 mg/kg/injection, schedule: Q01DX015 (ip), vehicle: saline 91 % of control | dose: 120.0 mg/kg/injection, schedule: Q01DX015 (ip), vehicle: saline 88 % of control

Oc1ccc(-c2cc3c(O)ccc(O)c3[nH]2)cc1O
inactive: dose: 25.0 mg/kg/injection, schedule: Q04DX002 (ip), vehicle: Klucel (hydroxypropylcellulose) (HPC) 86 % of control | dose: 50.0 mg/kg/injection, schedule: Q04DX002 (ip), vehicle: Klucel (hydroxypropylcellulose) (HPC) 93 % of control | dose: 100.0 mg/kg/injection, schedule: Q04DX002 (ip), vehicle: Klucel (hydroxypropylcellulose) (HPC) 89 % of control

From PubChem BioAssay AID248 (DTP/NCI, 2004)
